This note sets out measurements from patent US4147797A, “Spiro-furanohydantoin derivatives” (Pfizer Inc., priority 1978, dated 1979).

One experiment addresses T1, aldose reductase (Bos taurus, UniProt P16116).
T1 construct: partially purified aldose reductase enzyme obtained from calf lens; from tissue; host or cells: calf lens
The experiment in a line: inhibition of aldose reductase enzyme activity (partially purified enzyme from calf lens). It counts as biochemical. The note with it: read-out: 50% Inhibitory Concentration. From the text: The activity of the compounds of the present invention as agents for the control of chronic diabetic complications may be determined by a number of standard biological or pharmacological tests. Suitable tests include (1) measuring their ability to inhibit the enzyme activity of isolated aldose reductase and (2) measuring their ability to reduce or inhibit sorbitol accumulation in the sciatic nerve of acutely streptozotocinized (i.e., diabetic) rats. […] Pat. No. 3,821,383 and based on the procedure on Hayman et. al., Journal of Biological Chemistry, 240, 877 (1965). The substrate employed was partially purified aldose reductase enzyme obtained from calf lens.

Experiment [1] deals with sorbitol accumulation in the sciatic nerve of streptozotocinized (i.e., diabetic) rats. The experiment in a line: inhibition of sorbitol accumulation in the sciatic nerve of streptozotocinized (diabetic) rats. It counts as in vivo. The note with it: 25 mg/kg oral at 4, 8 and 24 hours after streptozotocin; sorbitol measured 27 hours after induction of diabetes; compared to untreated animals. The procedure: The activity of the compounds of the present invention as agents for the control of chronic diabetic complications may be determined by a number of standard biological or pharmacological tests. Suitable tests include (1) measuring their ability to inhibit the enzyme activity of isolated aldose reductase and (2) measuring their ability to reduce or inhibit sorbitol accumulation in the sciatic nerve of acutely streptozotocinized (i.e., diabetic) rats.
The compounds of Examples 1 and 2 were tested for their ability to reduce or inhibit sorbitol accumulation in the sciatic nerve of streptozotocinized (i.e., diabetic) rats by the procedure essentially described in U.S. Pat. No. 3,821,383. In the present study, the amount of sorbitol accumulation in the sciatic nerves was measured 27 hours after induction of diabetes. The compounds were administered orally at the dose levels indicated at 4, 8 and 24 hours following the administration of streptozotocin. The results obtained in this manner are presented as the percent inhibition (%) obtained at a 25 mg/kg dose compared to the untreated animal standard (i.e., the untreated animal where sorbitol levels normally rise from approximately 50-100 mM/g. tissue to as high as 400 mM/g. tissue in the 27-hour test period): […]

As to `Cc1cc2c(o1)CCCC21NC(=O)NC1=O` (stereo not shown) [Example 2, 2-methyl-spiro[cyclohexa(b)furan-4,4'-imidazolidine]-2',5'-dione], on aldose reductase, the IC50 amounted to 100 µM. Further, in experiment [1], the “Percent Inhibition at 25 mg/kg” value is listed as 2%.
Turning to `O=C1NC(=O)C2(CCCc3occc32)N1` (stereo not shown) [Example 1, Spiro[cyclohexa(b)furan-4,4'-imidazolidine]-2',5'-dione], the IC50 at aldose reductase worked out at 100 µM. Moreover, the “Percent Inhibition at 25 mg/kg” value in experiment [1] was found to be 46%.
